In ChEMBL document CHEMBL1201862, “PubChem BioAssay data set” (2004):
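96-well plates; 48 h exposure; 5 concentrations. Endpoints by linear interpolation between flanking doses. Not reached: highest tested concentration assigned. GI50 is the concentration that inhibits growth by half.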 Active and inactive are the calls of the source. Cut-off read from the data, not from the text of the source: active = GI50 up to about 1.1 µM and inactive = higher.

Experiments:
Assay in all cases: growth of human tumour cells (NCI), 48 h
NCI-H460 = tested on: NCI-H460
SF-295 = tested on: SF-295
SK-MEL-5 = tested on: SK-MEL-5
A498 = tested on: A498
OVCAR-3 = tested on: OVCAR-3
COLO 205 = tested on: COLO 205
Malme-3M = tested on: Malme-3M
SR = tested on: SR
OVCAR-8 = tested on: OVCAR-8
MCF7 = tested on: MCF7
IGROV-1 = tested on: IGROV-1
HCT-15 = tested on: HCT-15
SNB-19 = tested on: SNB-19
MOLT-4 = tested on: MOLT-4
CAKI-1 = tested on: CAKI-1
SK-MEL-2 = tested on: SK-MEL-2
M14 = tested on: M14
LOX IMVI = tested on: LOX IMVI
SF-268 = tested on: SF-268
CCRF-CEM = tested on: CCRF-CEM

| Compound | GI50 (NCI-H460) | GI50 (SF-295) | GI50 (SK-MEL-5) | GI50 (A498) | GI50 (OVCAR-3) | GI50 (COLO 205) | GI50 (Malme-3M) | GI50 (SR) | GI50 (OVCAR-8) | GI50 (MCF7) | GI50 (IGROV-1) | GI50 (HCT-15) | GI50 (SNB-19) | GI50 (MOLT-4) | GI50 (CAKI-1) | GI50 (SK-MEL-2) | GI50 (M14) | GI50 (LOX IMVI) | GI50 (SF-268) | GI50 (CCRF-CEM) |
| --- | --- | --- | --- | --- | --- | --- | --- | --- | --- | --- | --- | --- | --- | --- | --- | --- | --- | --- | --- | --- |
| C/C(=N/NC(=O)c1ccncc1)C(F)(F)F | > 10 µM (inactive) | > 100 µM (inactive) | > 100 µM (inactive) | > 100 µM (inactive) | > 100 µM (inactive) | > 100 µM (inactive) | > 100 µM (inactive) | > 100 µM (inactive) | > 100 µM (inactive) | > 100 µM (inactive) | > 100 µM (inactive) | > 100 µM | > 100 µM (inactive) | > 100 µM (inactive) | > 100 µM (inactive) | > 100 µM (inactive) | > 100 µM (inactive) | – | – | – |
| CSc1cc(=O)n2c3ccccc3c3ccnc1c32 | 57 µM (inactive) | > 65.2 µM (inactive) | 43.4 µM (inactive) | > 91.4 µM (inactive) | > 100 µM (inactive) | > 100 µM (inactive) | > 86.7 µM (inactive) | – | > 67.9 µM (inactive) | 34.6 µM (inactive) | 25.7 µM (inactive) | 39.7 µM | > 64.3 µM (inactive) | > 100 µM (inactive) | – | > 100 µM (inactive) | – | > 100 µM (inactive) | > 49.9 µM (inactive) | > 100 µM (inactive) |
| OCC(O)COc1ccc(Br)cc1 (centres undefined) | > 10 µM (inactive) | > 100 µM (inactive) | > 100 µM (inactive) | > 100 µM (inactive) | > 100 µM (inactive) | > 100 µM (inactive) | > 100 µM (inactive) | 0.0166 µM (active) | > 100 µM (inactive) | – | > 100 µM (inactive) | > 100 µM | > 100 µM (inactive) | – | > 100 µM (inactive) | > 100 µM (inactive) | > 100 µM (inactive) | > 100 µM (inactive) | > 100 µM (inactive) | > 100 µM (inactive) |
| CC(C(=O)O)c1cnn(-c2ccccc2)c1-n1cccc1 (centres undefined) | > 100 µM (inactive) | > 100 µM (inactive) | > 100 µM (inactive) | > 100 µM (inactive) | > 63.7 µM (inactive) | > 100 µM (inactive) | > 100 µM (inactive) | – | > 100 µM (inactive) | > 100 µM (inactive) | > 100 µM (inactive) | > 100 µM | > 100 µM (inactive) | > 100 µM (inactive) | > 100 µM (inactive) | > 100 µM (inactive) | – | > 100 µM (inactive) | > 100 µM (inactive) | > 100 µM (inactive) |
| COc1ccc(/C=N/n2cnc3c(c2=O)SC(=C(C#N)C#N)N3c2ccccc2)cc1 | > 100 µM (inactive) | 74.5 µM (inactive) | > 100 µM (inactive) | – | > 100 µM (inactive) | > 100 µM (inactive) | – | > 100 µM (inactive) | > 100 µM (inactive) | – | > 100 µM (inactive) | – | > 100 µM (inactive) | > 100 µM (inactive) | – | – | – | – | 41.1 µM (inactive) | > 100 µM (inactive) |
| COc1cc2cc[n+]3c(C)c4cc(OC)c(OC)cc4c([O-])c3c2cc1OC | > 100 µM (inactive) | > 100 µM (inactive) | 36.8 µM (inactive) | > 100 µM (inactive) | 3.44 µM (inactive) | 12.4 µM (inactive) | 26.9 µM (inactive) | 61 µM (inactive) | > 100 µM (inactive) | – | 25.7 µM (inactive) | > 100 µM | > 100 µM (inactive) | 48.8 µM (inactive) | > 100 µM (inactive) | 56.9 µM (inactive) | > 100 µM (inactive) | – | 36.3 µM (inactive) | 27 µM (inactive) |
| O=C1C(Cl)N(c2ccc(Cl)cc2)C1c1c[nH]c2ccccc12 (centres undefined) | 15 µM (inactive) | 16.4 µM (inactive) | 15.5 µM (inactive) | – | 17.6 µM (inactive) | 22.5 µM (inactive) | 12.5 µM (inactive) | 9.18 µM (inactive) | 31.3 µM (inactive) | – | 16.7 µM (inactive) | – | 18.2 µM (inactive) | 14.7 µM (inactive) | – | 14.5 µM (inactive) | 18.2 µM (inactive) | – | 26.2 µM (inactive) | 13 µM (inactive) |
| COc1ccc(-c2c3c(nc4nc(SCC(=O)c5ccc(Br)cc5)nc(N)c24)CCCC3)cc1OC | > 100 µM (inactive) | > 100 µM (inactive) | 10.1 µM (inactive) | – | > 100 µM (inactive) | > 100 µM (inactive) | 42.6 µM (inactive) | > 100 µM (inactive) | 33.5 µM (inactive) | > 100 µM (inactive) | > 100 µM (inactive) | > 100 µM | > 100 µM (inactive) | > 10 µM (inactive) | 79.6 µM (inactive) | – | 41.9 µM (inactive) | > 100 µM (inactive) | 71.9 µM (inactive) | > 100 µM (inactive) |
| NC(Cc1ccccc1CP(=O)(O)O)C(=O)O (centres undefined) | > 100 µM (inactive) | > 100 µM (inactive) | > 100 µM (inactive) | – | > 100 µM (inactive) | > 100 µM (inactive) | – | > 100 µM (inactive) | > 100 µM (inactive) | > 100 µM (inactive) | > 100 µM (inactive) | > 100 µM | > 100 µM (inactive) | > 100 µM (inactive) | > 100 µM (inactive) | > 100 µM (inactive) | > 100 µM (inactive) | > 100 µM (inactive) | > 100 µM (inactive) | > 100 µM (inactive) |
| CCOC(=O)c1ccc(N2C(=O)/C(=C/c3ccc(N(CCC#N)CCC#N)cc3)N=C2c2cc([N+](=O)[O-])ccc2Cl)cc1 | – | > 100 µM (inactive) | > 100 µM (inactive) | – | > 100 µM (inactive) | > 100 µM (inactive) | > 100 µM (inactive) | > 100 µM (inactive) | > 100 µM (inactive) | – | > 100 µM (inactive) | > 100 µM | > 100 µM (inactive) | > 100 µM (inactive) | > 100 µM (inactive) | > 100 µM (inactive) | – | > 100 µM (inactive) | > 100 µM (inactive) | > 100 µM (inactive) |
| C[C@@H]1C[C@]2(C[C@@H](C)[C@H]3C(C[C@@]4(C)CCC[C@@H]5C6=C[C@H](CCC34C)OC6=CC(=O)OC5(C)C)O2)OC1=O (some centres undefined) | > 51.5 µM (inactive) | > 51.5 µM (inactive) | > 51.5 µM (inactive) | > 51.5 µM (inactive) | > 51.5 µM (inactive) | > 51.5 µM (inactive) | – | – | > 51.5 µM (inactive) | > 51.5 µM (inactive) | > 51.5 µM (inactive) | > 51.5 µM | > 51.5 µM (inactive) | > 51.5 µM (inactive) | > 51.5 µM (inactive) | > 51.5 µM (inactive) | – | > 51.5 µM (inactive) | – | > 51.5 µM (inactive) |
| CCOC(=O)C1=C(C)N(C2OC(COC(C)=O)C(OC(C)=O)C(OC(C)=O)C2OC(C)=O)C(=O)NC1c1ccccc1 (centres undefined) | > 100 µM (inactive) | > 100 µM (inactive) | > 100 µM (inactive) | > 100 µM (inactive) | > 100 µM (inactive) | > 100 µM (inactive) | > 100 µM (inactive) | > 100 µM (inactive) | > 100 µM (inactive) | – | > 100 µM (inactive) | > 100 µM | > 100 µM (inactive) | 99.1 µM (inactive) | 83.9 µM (inactive) | > 100 µM (inactive) | > 100 µM (inactive) | > 100 µM (inactive) | > 100 µM (inactive) | 44.9 µM (inactive) |
| O=C1C(CO)=C[C@H](O)[C@H]2O[C@@H]12 | 199 µM (inactive) | 84.9 µM (inactive) | 202 µM (inactive) | 234 µM (inactive) | 177 µM (inactive) | 111 µM (inactive) | 137 µM (inactive) | – | 137 µM (inactive) | 126 µM (inactive) | 182 µM (inactive) | 124 µM | 419 µM (inactive) | 133 µM (inactive) | 253 µM (inactive) | 130 µM (inactive) | – | 136 µM (inactive) | 125 µM (inactive) | 74.8 µM (inactive) |
| CC(=O)c1ccc(Oc2ccc(/C(C)=N\N=C(N)N)cc2)cc1 | 2.77 µM (inactive) | 2.38 µM (inactive) | 2.08 µM (inactive) | 1.77 µM (inactive) | 1.99 µM (inactive) | 1.67 µM (inactive) | 1.97 µM (inactive) | – | 3.12 µM (inactive) | – | 5.62 µM (inactive) | 2.17 µM | 10.7 µM (inactive) | 2.25 µM (inactive) | – | 1.73 µM (inactive) | 1.5 µM (inactive) | 3.4 µM (inactive) | 3.59 µM (inactive) | 1.91 µM (inactive) |
| COc1cc(C(O)(CC#N)c2cc3c(cc2Br)OCO3)cc(OC)c1OC (centres undefined) | 18.8 µM (inactive) | 16.3 µM (inactive) | – | – | 18 µM (inactive) | 37.6 µM (inactive) | – | – | 44.9 µM (inactive) | 14.7 µM (inactive) | 20.9 µM (inactive) | – | 27.1 µM (inactive) | 56 µM (inactive) | 29.1 µM (inactive) | 47 µM (inactive) | 4.62 µM (inactive) | 31.3 µM (inactive) | 28.2 µM (inactive) | 43.2 µM (inactive) |
| CC1=NN(C(=O)c2ccc(C)cc2)C(=O)C1/N=N/c1ccccc1C(=O)O (centres undefined) | > 100 µM (inactive) | > 92.3 µM (inactive) | > 100 µM (inactive) | – | > 89.1 µM (inactive) | > 100 µM (inactive) | > 100 µM (inactive) | – | > 74.5 µM (inactive) | > 100 µM (inactive) | > 100 µM (inactive) | 52.6 µM | > 100 µM (inactive) | > 73.8 µM (inactive) | > 100 µM (inactive) | > 100 µM (inactive) | – | > 100 µM (inactive) | > 100 µM (inactive) | 53.7 µM (inactive) |
